One assay concerns the target T1, ACE (from rabbit lung) (Oryctolagus cuniculus, UniProt P12822).
T1 construct: ACE (from rabbit lung) were obtained from Sigma-Aldrich Co; purchased Sigma-Aldrich Co. (St. Louis, MO, USA); host or cells: rabbit lung (tissue-derived enzyme)
T1 sequence (P12822 34-1310): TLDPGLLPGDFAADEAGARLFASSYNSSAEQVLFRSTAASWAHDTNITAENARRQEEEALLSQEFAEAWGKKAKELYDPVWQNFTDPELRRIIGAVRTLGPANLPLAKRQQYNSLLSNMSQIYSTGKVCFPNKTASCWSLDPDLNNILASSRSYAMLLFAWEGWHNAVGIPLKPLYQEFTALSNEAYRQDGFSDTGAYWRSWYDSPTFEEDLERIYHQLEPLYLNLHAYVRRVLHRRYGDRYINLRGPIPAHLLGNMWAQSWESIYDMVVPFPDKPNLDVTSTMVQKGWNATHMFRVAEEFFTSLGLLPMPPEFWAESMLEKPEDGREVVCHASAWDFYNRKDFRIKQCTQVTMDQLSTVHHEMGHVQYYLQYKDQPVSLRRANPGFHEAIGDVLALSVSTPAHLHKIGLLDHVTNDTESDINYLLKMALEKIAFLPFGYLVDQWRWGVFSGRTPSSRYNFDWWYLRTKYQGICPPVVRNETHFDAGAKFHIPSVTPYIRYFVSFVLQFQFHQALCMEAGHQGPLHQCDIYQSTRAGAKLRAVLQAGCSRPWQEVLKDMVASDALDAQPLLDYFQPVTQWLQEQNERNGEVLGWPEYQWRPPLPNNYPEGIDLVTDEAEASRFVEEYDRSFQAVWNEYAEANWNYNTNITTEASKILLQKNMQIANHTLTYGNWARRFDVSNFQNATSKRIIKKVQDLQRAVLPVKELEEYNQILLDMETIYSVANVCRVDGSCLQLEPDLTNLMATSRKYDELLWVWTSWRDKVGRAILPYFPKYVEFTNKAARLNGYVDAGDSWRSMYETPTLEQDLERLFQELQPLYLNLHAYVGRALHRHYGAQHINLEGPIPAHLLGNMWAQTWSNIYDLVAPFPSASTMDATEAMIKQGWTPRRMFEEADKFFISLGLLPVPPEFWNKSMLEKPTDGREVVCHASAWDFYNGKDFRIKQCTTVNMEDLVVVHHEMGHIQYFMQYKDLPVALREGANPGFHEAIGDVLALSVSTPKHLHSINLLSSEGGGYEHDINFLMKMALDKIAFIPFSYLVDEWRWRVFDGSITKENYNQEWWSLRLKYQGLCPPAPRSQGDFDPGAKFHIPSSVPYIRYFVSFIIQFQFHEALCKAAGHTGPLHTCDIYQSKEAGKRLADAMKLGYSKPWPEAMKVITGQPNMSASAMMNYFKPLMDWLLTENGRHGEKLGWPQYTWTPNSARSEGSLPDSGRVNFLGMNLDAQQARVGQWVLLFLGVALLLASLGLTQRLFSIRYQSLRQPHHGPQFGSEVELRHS
Briefly: ACE inhibitory activity (HHL substrate, RP-HPLC of hippuric acid). Type of assay: biochemical. The source says: Wheat gluten was obtained from CF Haishi Biotechnology Ltd. Co. (Beijing, China) and kept in sealed plastic bags at room temperature until use. Alcalase 2.4L (2.4 AU/g) was purchased from Novo Nordisk (Copenhagen, Denmark). Protex 7L (1600 AU/g) and α-amylase (26,000 RAU/g) were bought from Genencor Division of Danisco (Rochester, NY, USA). Fluorescein sodium salt, Trolox, DPPH, 2,2′-azobis(2-methylpropionamidine) dihydrochloride (AAPH), hippuryl-histidyl-leucine (HHL), hippuric acid (HA), and ACE (from rabbit lung) were obtained from Sigma-Aldrich Co. (St. Louis, MO, USA). The ABTS assay kit was supplied by Beyotime Biotechnology (Haimen, China). Acetonitrile and methanol were provided by Fisher Scientific (Pittsburgh, PA, USA). Trifluoroacetic acid (TFA) was supplied by Alfa Aesar (Ward Hill, MA, USA). Synthesized peptides were obtained from Scilight Biotechnology Co., Ltd (Beijing, China). The purity of the synthesized peptides was more than 98% according to HPLC analysis. All other chemicals were of analytical grade.
The modified approach of Cushman and Cheung[68] was used to analyze ACE inhibitory activity. Briefly, the preincubation of 20 µL of sample and 30 µL of ACE solution (60 mU/mL) was performed at 37 °C for 5 min. After adding 50 µL of the substrate (7.6 mmol/L HHL in 50 mmol/L sodium borate buffer containing 300 mmol/L NaCl at pH 8.3), the 30-min incubation of the mixture was performed at ambient temperature. The reaction was ceased with 100 µL of 1.0 mol/L HCl. RP-HPLC was employed to determine the amount of HA liberated by ACE on an Inertsil ODS-SP C18 column (4.6 mm × 150 mm, Shimadzu, Kyoto, Japan). The peak area was subject to the calculation of ACE inhibitory activity.

A further assay concerns ACE. Particulars: cited from earlier work.
Assay [1] addresses T2, angiotensin I-converting enzyme (ACE) from rabbit lung (rabbit) (UniProt P12822).
T2 sequence: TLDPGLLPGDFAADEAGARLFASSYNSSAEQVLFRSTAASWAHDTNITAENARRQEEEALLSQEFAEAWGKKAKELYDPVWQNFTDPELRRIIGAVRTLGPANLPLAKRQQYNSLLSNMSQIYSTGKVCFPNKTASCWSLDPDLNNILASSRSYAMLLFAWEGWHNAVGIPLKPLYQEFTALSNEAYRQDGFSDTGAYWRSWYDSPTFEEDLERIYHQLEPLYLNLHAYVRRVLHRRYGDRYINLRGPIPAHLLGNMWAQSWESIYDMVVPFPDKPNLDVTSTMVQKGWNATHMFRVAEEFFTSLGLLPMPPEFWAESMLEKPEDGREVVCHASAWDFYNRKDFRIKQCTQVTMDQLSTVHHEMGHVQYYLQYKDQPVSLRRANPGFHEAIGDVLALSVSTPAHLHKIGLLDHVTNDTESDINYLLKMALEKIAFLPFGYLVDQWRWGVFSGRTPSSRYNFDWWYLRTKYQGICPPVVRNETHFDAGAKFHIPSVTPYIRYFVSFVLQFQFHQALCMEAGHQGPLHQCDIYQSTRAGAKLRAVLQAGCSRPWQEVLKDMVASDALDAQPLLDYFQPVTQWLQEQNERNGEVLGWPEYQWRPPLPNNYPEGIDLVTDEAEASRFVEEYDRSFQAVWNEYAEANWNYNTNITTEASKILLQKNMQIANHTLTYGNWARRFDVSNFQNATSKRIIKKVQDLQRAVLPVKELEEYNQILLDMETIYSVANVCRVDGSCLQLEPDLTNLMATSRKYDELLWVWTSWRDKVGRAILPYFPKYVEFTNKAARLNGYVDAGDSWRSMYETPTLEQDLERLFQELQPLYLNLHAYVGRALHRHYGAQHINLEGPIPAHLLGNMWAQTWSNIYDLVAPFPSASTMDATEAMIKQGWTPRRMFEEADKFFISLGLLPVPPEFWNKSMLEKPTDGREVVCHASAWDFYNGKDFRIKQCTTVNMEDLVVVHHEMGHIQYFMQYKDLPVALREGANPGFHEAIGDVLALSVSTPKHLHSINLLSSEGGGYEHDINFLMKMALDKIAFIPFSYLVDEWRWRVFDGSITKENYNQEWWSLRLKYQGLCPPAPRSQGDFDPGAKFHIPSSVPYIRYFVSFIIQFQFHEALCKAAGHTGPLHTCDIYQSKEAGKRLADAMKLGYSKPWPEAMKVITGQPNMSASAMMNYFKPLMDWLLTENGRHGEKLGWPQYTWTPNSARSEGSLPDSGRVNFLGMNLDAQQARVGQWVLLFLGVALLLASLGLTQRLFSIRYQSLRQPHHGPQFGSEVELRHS

[2] abbreviates: calculated from mmol/L values, read-out: ACE IC50 calculated in the units of mg/mL (converted).
Where [3] appears, read: synthesized peptides, read-out: ACE IC50.

Read-outs that look alike come from different tables or passages of the source. Residues, ends and D or L forms follow the SMILES beside them.

`C[C@H](N)C(=O)N1CCC[C@H]1C(=O)N[C@@H](CO)C(=O)N[C@@H](Cc1ccc(O)cc1)C(=O)O` [Ala-Pro-Ser-Tyr] (H-APSY-OH): the IC50 at ACE (from rabbit lung) (setting [2]) was 1470 µM; on ACE (from rabbit lung) (setting [3]), 1470 ± 80 µM. Consider `N=C(N)NCCC[C@H](N)C(=O)NCC(=O)NCC(=O)N[C@@H](Cc1ccc(O)cc1)C(=O)O` [Arg-Gly-Gly-Tyr] (H-RGGY-OH), for which the values for the IC50 at ACE (from rabbit lung) (setting [2]) and at ACE (from rabbit lung) (setting [3]) were 1480 µM and 1480 ± 110 µM, respectively. For the molecule `CC(C)C[C@H](N)C(=O)N[C@H](C(=O)N[C@@H](CO)C(=O)O)C(C)C` [Leu-Val-Ser] (H-Leu-Val-Ser-OH), the IC50 on ACE (from rabbit lung) (setting [2]) was 599 µM; at ACE (from rabbit lung) (setting [3]), 600 ± 30 µM. The corresponding values for `NC(=O)CC[C@H](NC(=O)[C@@H](N)Cc1ccc(O)cc1)C(=O)O` [Tyr-Gln] (H-Tyr-Gln-OH) are 2000 µM and 2000 ± 130 µM. In the case of “Ala-His-Ser-Tyr (AHSY; printed: Ala-His-Ser-Tyr)”, the IC50 in the assay with ACE (isolated from cuttlefish) was 11.6 µM. With Gly-Gly-Tyr, the IC50 with ACE is 1.3 µM. As to Leu-Tyr (peptide), the IC50 of ACE inhibitory activity (hippuric acid liberated from HHL by ACE, RP-HPLC) in assay [1] was found to be 310 µM. Consider Leu-Val-Ser (peptide), for which the IC50 of ACE inhibitory activity (hippuric acid liberated from HHL by ACE, RP-HPLC) in assay [1] came out at 600 µM.

Tyr-Gln (peptide): the IC50 of ACE inhibitory activity (hippuric acid liberated from HHL by ACE, RP-HPLC) in assay [1] is 2000 µM. As for APSY [Ala-Pro-Ser-Tyr], the IC50 of ACE inhibitory activity (hippuric acid liberated from HHL by ACE, RP-HPLC) in assay [1] worked out at 1470 µM. On the same count and under the same terms, the result for RGGY [Arg-Gly-Gly-Tyr] reads 1480 µM.

The values above are taken from PMC7933229 (Scientific Reports, 2021).
